Laboratory results as given in patent EP0462621A2, “Use of particular compounds for manufacture of pharmaceutical formulations for treatment against various parasites, mycoplasmas, other indications and other infections” (Prendergast, Patrick Thomas, priority 1990, dated 1991).

What was measured:
[1] = Stability of IPA on storage; format: physicochemical
Description: Compounds of Formula la (IPA) have especially low toxicity for pediatrics, and acceptable toxicity of adult humans, although it is somewhat higher than for pediatrics. IPA can be stored dry almost indefinitely if protected from light and stored at -75 °C. IPA is photosensitive and deteriorates at room temperature, whether in a solid form or in aqueous or ethanolic solutions. It was found in experiments that the breakdown rate of IPA is approximately 3% per month in a dark container at room temperature.
Two lots of IPA (Sample 1 and Sample 2) were tested.
Infrared spectra of IPA, taken from time to time, as described below, were used to monitor changes which may have occurred in the IPA over time. The compound was generally stored at -10° C. FT-IR data of fresh IPA are listed in the first column of Table la(m). A second FT-IR spectrum of the same compound, after storage at -10 C for 110 days, was taken and the data are listed in the second column of Table la(m). The melting point of the compound was taken at the same time. The original melting point was 128-130 C, and the second melting point, 110 days later, was 129-132 C.
The observed melting points compare favorably with literature melting points ranging from 126° C to 138° C.

[2] = system: herpes simplex type 1 (HSV-1); experiment: M413 cells, HSV-1; format: cell-based; conditions: M413 cell line of human fibroblasts
Description: A procedure similar to that described for Experiment la(g) was followed except herpes simplex virus- type I (HSV-I) was used.
The experiments were performed in duplicate M413 cells which were set up in Titer-Tek slides (4 well, glass) and those that were confluent within one day were used in experiments. Within 24-48 hours, cell densities were checked to ensure sufficiency to proceed with infection. Stock HSV-1 was serially diluted in 10-fold steps (1, 10^-1, 10-^2, 10-^3, 10-^4) to provide 2 ml of each dilution: 0.2/1.8 ml diluent to finally yield overall dilutions of approximately 10^-1, 10^-2, 10-^3, 10^-4, 10-^5. Virus absorption was allowed for 90 minutes at 37 °C, after which time the inoculum was removed and replaced with solutions containing IPA at the concentrations as indicated in Table la(j). The slide was incubated for 3 days and stained with the following antisera: monoclonal antibody (MAB) to HSV-1 virus capsid antigen (VCA) at 1:20; control mores IgG at 1:20.

B lymphocytes = experiment: Lymphocyte blastogenesis assay, B lymphocytes (PWM); format: cell-based, human
Description: T and B lymphocytes from normal human donors were incubated for 30 minutes at various dose levels of the compounds indicated. The lymphocytes were added in triplicate wells in gentamicin and phytohemagglutinin (PHA) (a T cell mitogen), pokeweed mitogen (PWM) (a B cell mitogen) and allogeneic mononuclear cells (mixed leukocyte cultures; MLC) or media containing the above additives. The lymphocyte blastogenesis assay is described in detail below.
The data are represented as the mean of the three replicates. The results are presented in Charts la(e) (i) and la(e) (ii) (Figs. 1 and 2). […] A reduction of both T lymphocytes' abilities to proliferate was obtained when 100 u.M or greater concentrations of IPA was added to the cell cultures. Proliferative activity of T lymphocytes by 25% at the 30 u.M concentration of IPA in the experiment.
• 1. Mononuclear cells are separated from whole blood by differential centrifugation using a synthetic separation medium, or are thawed from a cryopreserved preparation. The cells are washed and resuspended in media (RPMI - 1640, L-Glutamine 2mM, Herpes Buffer 25mM, Gentamicin 50 ug/ml, Human AB Serum-heat inactivated (56°, 30°) 20%). • 2. A viable cell count is determined. • 3. Cell concentration is adjusted to 2 x 10^6 /ml in media. • 4. The cell suspension is added to wells of a 96-well flat bottom plate in 0.1 ml aliquots (2 x 10^5 cells). • 5. The selected mitogens and/or antigens (in media without serum) are added to the cells in the wells also in 0.1 ml aliquots. • 6. The cultures are incubated for 3-7 days (depending upon the mitogen or antigen) at 37° C in a humidified 5% C02 atmosphere. • 7. Six to eight hours before termination of cultures 0.05 ml (1 µCi) of ^3HTdR sp. act 6.7 Ci/mM (20 µCi/ml stock) is added to each well. • 8. At termination of cultures the cells are harvested onto strips of scintillation-grade fibreglass paper using a multiple sample harvester. • 9. Perforated disks from the fibreglass paper of the harvested cultures are placed each into scintillation vials to which is then added 5 ml of toluene based scintillation cocktail. • 10. The vials are counted in a liquid scintillation counter for one minute where the amount of incorporated ^3HTdR is determined.
net CPM = xCPM of mitogen/antigen cultures - xCPM of media cultures.

For `CC(C)=CCNc1ncnc2c1ncn2[C@@H]1O[C@H](CO)[C@@H](O)[C@H]1O` [IPA, N^6-(Δ^2-isopentenyl) adenosine], the “change in the compound on storage” value ([1]; Sample 1, tests over four months) was “no change in the compound”, the breakdown rate ([1]; dark container at room temperature) was “approximately 3 % per month” and the “change in the FT-IR spectrum on storage” value ([1]; storage at -10 C for 110 days) was “little change in the FT-IR spectrum”. For the same compound, the “in-vitro levels of herpes simplex type 1 (HSV-1)” value [2] was “reduces”, the B lymphocyte responsiveness (B lymphocytes; 10 µM, third experiment) was “Increased” and the B lymphocyte function (B lymphocytes; 1000 µM down to 10 µM, third experiment (Figs. 7 and 8)) was “reductions”. The B lymphocyte proliferation (B lymphocytes; 0.1 - 10 µM, first experiment) was “No effect or an increase”, the “reduction in B lymphocyte function” value (B lymphocytes; 30 -35 u.M, third experiment) was roughly 25% and the “reduction of B lymphocyte proliferation” value (B lymphocytes; between the 30 -10 u.M concentration levels, second experiment, approximate) was 30 -50%.
